A short description of data set [1]: Observed behavioural effects in mice after introduction. It counts as in vivo, mice (BALB line). The note with it: intraperitoneally. Here is the method:
In all cases trials were carried out on mice of the BALB line of 3-4 month age. Non-toxic doses of compounds under test, varying from 60 to 400 mg/kg, were used in all experiments. In the case of water-soluble compounds aqueous solutions of the test compounds were injected intraperitoneally (i.p.), while water-insoluble compounds were introduced orally (p.o.).
(§1) Compound 1 was dissolved in a twin-water 1:9 (concentration of saturated solution was 40 mg/ml) and introduced intraperitoneally at the rate of 0.2 ml per 20 g of mouse weight.

Data set [2] can be described thus: Rectal (body) temperature in mice. It counts as in vivo, mice (BALB line). The note with it: for Body temperature (T): Table 2, 390 mg/kg (1.0 mM/kg; 1/2 LD16). As for the experimental part: (§2) In all cases trials were carried out on mice of the BALB line of 3-4 month age. […] In the case of water-soluble compounds aqueous solutions of the test compounds were injected intraperitoneally (i.p.), while water-insoluble compounds were introduced orally (p.o.).
(§3) Rectal temperature changes (absolute magnitudes in ° C.) were measured using a medicinal electrothermometer TREM-1 (Table 1). […] The data on oxygen consumption are given an percents relative to the starting content of oxygen taken as 100 (Table 2).

Data set [3] is described as follows: Oxygen consumption in mice (closed testing unit, gas analyzer MN 5130). It counts as in vivo, mice (BALB line). To be noted: for Lowering of oxygen consumption: relative to initial value; for Consumption of oxygen (O2): relative to starting content taken as 100, 390 mg/kg (1.0 mM/kg; 1/2 LD16), mice. As for the experimental part: as §2, §3
The nature of data set [4]: Rectal temperature in rats. It counts as in vivo.
The next data set in a line: physchem. It counts as physicochemical. To be noted: twin-water 1:9. As for the experimental part:
as §1

Data set [5] can be described thus: Lethal dose determination (LD16, LD50, LD84) in mice. The note with it: mouse, in vivo, ip.

Data on 3 compounds can be found in US6028068A, “Substituted 6H-1,3,4-thiadiazine-2-amines, the use thereof as anaesthetising, cardiovascular and hypometabolic agents, and a pharmaceutical composition containing them” (The Procter & Gamble Company, priority 1999, dated 2000).

The solubility is the dissolved amount per volume that the medium holds. The low end stands for little dissolved substance, the high end for much dissolved substance. As usually defined, the LD50 is the dose expected to kill half of the subjects tested. Higher therefore signals lower toxicity.

Structures can show the parent of a compound that is named as a salt.

Take `CCOC(=O)C(=NOC)C1=NN=C(N2CCOCC2)SC1` [Compound 1, Ethyl-1-methoxyimino-1-(2-morpholino-6H-1,3,4-thiadiazine-5-yl)acetate, hydrobromide]: the “Effects of introduction” value in data set [1] is “akiriesia, suppression of reflexes to external disturbance, lateral state of mice”. Further, the “Time to maximum temperature drop” value in data set [2] fell in the range of 90 to 120 min. Moreover, the Body temperature in data set [2] (391.7 mg/kg (1.0 mM/kg) i.p., 0 minutes) worked out at 37.9 °C; in data set [2] (391.7 mg/kg (1.0 mM/kg) i.p., 30 minutes) it was 29.6 °C; in data set [2] (391.7 mg/kg (1.0 mM/kg) i.p., 60 minutes), 26.5 °C; in data set [2] (391.7 mg/kg (1.0 mM/kg) i.p., 90 minutes) it was 24.8 °C; in data set [2] (391.7 mg/kg (1.0 mM/kg) i.p., 120 minutes), 24.6 °C; in data set [2] (391.7 mg/kg (1.0 mM/kg) i.p., 180 minutes), 32.6 °C. For the same compound, the Body temperature in data set [2] (391.7 mg/kg (1.0 mM/kg) i.p., 240 minutes) stood at 34.6 °C; in data set [2] (391.7 mg/kg (1.0 mM/kg) i.p., 300 minutes), 35.9 °C. Further, the “Fall of rectal temperature” value in data set [2] (10 minutes after introduction) was 3-4 °C; in data set [2] (after 30 minutes) it was 7-8 °C; in data set [4] (10 minutes after introduction), 3-4 °C; in data set [4] (after 30 minutes) it was “about 5 °C”. Further, the entries for the “Body temperature (T)” value in data set [2] (5 minutes) and in data set [2] (15 minutes) were 33.5 °C and 31.2 °C, respectively. In data set [2] (after five hours), this compound gave a Temperature difference of 2 °C. Also, the “Drop of body temperature” value in data set [2] (introduced intraperitoneally) is given as “drop of body temperature”. Also, in data set [2] (reached in 90-120 minutes), the Maximum temperature drop was 12-13 °C. The “Restoration of oxygen consumption” value in data set [3] (Table 2, mice) is recorded as “Full restoration of oxygen consumption was not observed”. Further, the “Lowering of oxygen consumption” value in data set [3] (at the fourth hour) was 2 fold; in data set [3] (during the first hour), 7-10 fold; in data set [3] (for the next 2 hours), 3-4 fold. The “Consumption of oxygen (O2)” value in data set [3] (0 minutes) is reported as 100 percents; in data set [3] (5 minutes) it was 8.1 percents; in data set [3] (15 minutes) it was 0.1 percents; in data set [3] (30 minutes) it was 0.2 percents; in data set [3] (60 minutes), 12.0 percents; in data set [3] (90 minutes), 27.0 percents. For the same compound, the “Consumption of oxygen (O2)” value came out at 26.0 percents in data set [3] (120 minutes), 28.0 percents in data set [3] (180 minutes) and 59.0 percents in data set [3] (240 minutes). Further, the solubility in “physchem” turned out to be 40 mg/mL. This compound returned an LD16 in data set [5] of 788.4 mg/kg. In data set [5], this compound registered an LD50 of 830 mg/kg. Moreover, the LD84 in data set [5] was determined as 881.5 mg/kg.
With `CCOC(=O)C(=NOC)C1=NN=C(N2CCOCC2)SC1` [Compound 2, Ethyl-1-methoxyimino-1-(2-morpholino-6H-1,3,4-thiadiazine-5-yl)acetate, mesylate], the Body temperature in data set [2] (410.0 mg/kg (1.0 mM/kg) i.p., 0 minutes) stood at 38.5 °C; in data set [2] (410.0 mg/kg (1.0 mM/kg) i.p., 30 minutes), 31.9 °C; in data set [2] (410.0 mg/kg (1.0 mM/kg) i.p., 60 minutes) it was 32.8 °C; in data set [2] (410.0 mg/kg (1.0 mM/kg) i.p., 90 minutes), 35.3 °C; in data set [2] (410.0 mg/kg (1.0 mM/kg) i.p., 120 minutes) it was 36.4 °C; in data set [2] (410.0 mg/kg (1.0 mM/kg) i.p., 180 minutes) it was 37.6 °C. This compound also came in with a Body temperature in data set [2] (410.0 mg/kg (1.0 mM/kg) i.p., 240 minutes) of 38.8 °C.
`CCOC(=O)C(=NOC)C1=NN=C(N2CCSCC2)SC1` [Compound 4, Ethyl-1-methoxyimino-1-(2-thiomorpholino-6H-1,3,4-thiadiazine-5-yl)acetate, mesylate]: the Body temperature stood at 38.1 °C in data set [2] (166.0 mg/kg (0.39 mM/kg) i.p., 0 minutes); 33.9 °C in data set [2] (166.0 mg/kg (0.39 mM/kg) i.p., 30 minutes); 34.9 °C in data set [2] (166.0 mg/kg (0.39 mM/kg) i.p., 60 minutes); 35.7 °C in data set [2] (166.0 mg/kg (0.39 mM/kg) i.p., 120 minutes); 37.4 °C in data set [2] (166.0 mg/kg (0.39 mM/kg) i.p., 180 minutes).
